Measurements: EP4775574A1, “FURAN RING-CONTAINING COMPOUND, PHARMACEUTICAL COMPOSITION THEREOF, AND USE THEREOF” (Wuhan Xirui Pharmaceutical Technology Co., Ltd, priority 2023, dated 2025)

Tests used:
[1] = test system: KM mouse acetic acid-induced writhing model; assay: Analgesic efficacy in mouse acetic acid-induced writhing model; format: in vivo, KM mice; details: single dose, writhes within 20 min, p < 0.05 vs solvent control
Procedure: 1. Objective: The analgesic efficacy of the example was evaluated in a KM mouse acetic acid-induced writhing model. 2. Experimental methods: 2.1 Experimental drugs: The compounds in examples of the present disclosure and reference compound were self-prepared. […] It was prepared using a solvent (Tween 80 + 0.5% MC (v:v = 1:99 pH = 3)). 2.2 Experimental animals: Male KM mice were purchased from Hubei Provincial Center for Disease Control and Prevention (Hubei Provincial Academy of Preventive Medicine), weighing 20 to 25 g at the time of purchase. 2.3 Experimental grouping: Table 6: Efficacy test grouping of compounds in the acetic acid-induced writhing model
2.5 Data collection and analysis • Data were collected using Excel software. • Data were analyzed using Prism (Graph pad software, Inc.) software. 3.

Nav1.7 = Nav1.7 (Homo sapiens, UniProt Q15858); assay: Sodium channel selectivity test, patch-clamp, Nav1.7; format: cell-based; details: read-out: Nav1.7 Inhibition rate (%)
Chain of Nav1.7 (Q15858 whole entry): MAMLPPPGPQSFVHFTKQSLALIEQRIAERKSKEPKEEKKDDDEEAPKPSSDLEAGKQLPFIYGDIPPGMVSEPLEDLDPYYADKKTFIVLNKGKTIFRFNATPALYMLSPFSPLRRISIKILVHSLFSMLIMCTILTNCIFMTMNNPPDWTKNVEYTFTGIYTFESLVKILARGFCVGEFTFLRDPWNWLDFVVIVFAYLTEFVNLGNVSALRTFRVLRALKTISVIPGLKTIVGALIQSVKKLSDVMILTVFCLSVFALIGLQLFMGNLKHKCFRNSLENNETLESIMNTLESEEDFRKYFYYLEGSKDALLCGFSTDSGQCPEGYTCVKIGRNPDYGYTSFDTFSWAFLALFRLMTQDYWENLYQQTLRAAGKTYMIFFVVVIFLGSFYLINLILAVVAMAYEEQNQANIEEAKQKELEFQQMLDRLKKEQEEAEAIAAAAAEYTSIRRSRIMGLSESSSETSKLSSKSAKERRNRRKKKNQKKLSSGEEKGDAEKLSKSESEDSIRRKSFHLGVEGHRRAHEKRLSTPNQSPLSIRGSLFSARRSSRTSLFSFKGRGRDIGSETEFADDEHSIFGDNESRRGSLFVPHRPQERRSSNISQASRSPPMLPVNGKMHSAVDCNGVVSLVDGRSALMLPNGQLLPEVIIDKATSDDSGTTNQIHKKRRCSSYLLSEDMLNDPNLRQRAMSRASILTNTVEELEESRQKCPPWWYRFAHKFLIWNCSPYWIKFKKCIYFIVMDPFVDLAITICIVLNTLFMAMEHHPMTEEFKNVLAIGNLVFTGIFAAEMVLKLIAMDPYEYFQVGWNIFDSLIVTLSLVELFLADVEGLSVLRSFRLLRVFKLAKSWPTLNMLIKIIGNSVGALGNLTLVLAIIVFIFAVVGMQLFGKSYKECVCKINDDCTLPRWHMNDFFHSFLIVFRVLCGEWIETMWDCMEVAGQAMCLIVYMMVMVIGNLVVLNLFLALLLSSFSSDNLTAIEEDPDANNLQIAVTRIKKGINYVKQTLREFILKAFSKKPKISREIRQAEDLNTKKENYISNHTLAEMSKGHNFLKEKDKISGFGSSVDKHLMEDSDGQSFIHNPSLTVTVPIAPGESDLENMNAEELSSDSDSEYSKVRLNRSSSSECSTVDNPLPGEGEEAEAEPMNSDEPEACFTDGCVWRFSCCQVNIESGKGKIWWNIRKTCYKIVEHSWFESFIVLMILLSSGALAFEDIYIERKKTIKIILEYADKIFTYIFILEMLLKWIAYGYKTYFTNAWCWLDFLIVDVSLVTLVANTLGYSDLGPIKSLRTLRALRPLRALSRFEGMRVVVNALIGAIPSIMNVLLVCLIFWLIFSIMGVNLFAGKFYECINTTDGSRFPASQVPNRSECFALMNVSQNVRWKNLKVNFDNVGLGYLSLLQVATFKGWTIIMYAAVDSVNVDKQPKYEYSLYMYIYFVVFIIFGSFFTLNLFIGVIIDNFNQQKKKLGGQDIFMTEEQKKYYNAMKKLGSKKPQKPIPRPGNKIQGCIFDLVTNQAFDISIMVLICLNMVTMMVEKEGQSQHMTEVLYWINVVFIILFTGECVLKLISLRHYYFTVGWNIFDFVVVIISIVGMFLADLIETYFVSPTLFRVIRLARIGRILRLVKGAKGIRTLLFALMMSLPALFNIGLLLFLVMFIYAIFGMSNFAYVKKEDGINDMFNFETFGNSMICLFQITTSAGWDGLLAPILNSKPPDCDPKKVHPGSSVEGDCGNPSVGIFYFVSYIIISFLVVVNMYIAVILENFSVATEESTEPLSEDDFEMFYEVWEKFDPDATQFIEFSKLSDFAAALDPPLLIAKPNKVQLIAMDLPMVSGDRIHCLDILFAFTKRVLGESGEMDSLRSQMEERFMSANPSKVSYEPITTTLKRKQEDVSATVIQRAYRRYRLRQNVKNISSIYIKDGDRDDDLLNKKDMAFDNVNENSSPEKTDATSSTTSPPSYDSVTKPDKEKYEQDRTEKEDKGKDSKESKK
Description: (§1) Test Example 3: Selectivity test of the compounds of the present disclosure on sodium channels • 1. Experimental objective: The effects of the compounds on the current of the voltage-gated sodium channel (NaV) subtypes 1.1-1.7 were detected by patch-clamp technique • 2. Experimental materials and instruments • 2.1 Cell lines: CHO/HEK293 cell lines stably expressing Nav1.1-1.7 sodium channels, constructed in-house by the laboratory of Beijing ICE Bioscience Co., Ltd., (Reference: Jarvis MF, Honore P, Shieh CC, Chapman M, Joshi S, Zhang XF, Kort M, Carroll W, Marron B, Atkinson R, Thomas J, Liu D, Krambis M, Liu Y, McGaraughty S, Chu K, Roeloffs R, Zhong C, Mikusa JP, Hernandez G, Gauvin D, Wade C, Zhu C, Pai M, Scanio M, Shi L, Drizin I, Gregg R, Matulenko M, Hakeem A, Gross M, Johnson M, Marsh K, Wagoner PK, Sullivan JP, Faltynek CR, Krafte DS. A-803467, a potent and selective Nav1.8 sodium channel blocker, attenuates neuropathic and inflammatory pain in the rat. Proc Natl Acad Sci U S A. 2007 May 15;104(20):8520-5. doi: 10.1073/pnas.0611364104. Epub 2007 May 2. PMID: 17483457; PMCID: PMC1895982.), gene information Nav1.1: NM_006920; Nav1.2: NM_001040142; Nav1.3: NM_006922; Nav1.4: NM_000334; Nav1.5: NM198056; Nav1.6: NM014191; Nav1.7: […]. • 2.2 Compounds: Dissolved in DMSO, with sample concentration prepared at 30 µM. • 3. Experimental methods • 3.1 Cell culture • (1) Maintenance medium: CHO cells were cultured in HAM'S/F-12 medium containing 10% fetal bovine serum, 100 µg/mL Zeocin, and 10 µg/mL Blasticidin, under conditions of 37°C incubation temperature and 5% carbon dioxide concentration. HEK-293 cells were cultured in DMEM medium containing 10% fetal bovine serum and 800 µg/mL G418; the culture temperature was 37°C, and the carbon dioxide concentration was 5%. • (2) Cell passage: The old medium was removed, and the cells were washed once with PBS, then 1 mL of 0.25%-Trypsin-EDTA solution was added and incubated at 37°C for approximately 1.5 min. When the cells were detached from the bottom of the dish, about 5 mL of preheated complete medium at 37°C was added. […]

Nav1.2 = Nav1.2 (Homo sapiens, UniProt Q99250); assay: Sodium channel selectivity test, patch-clamp, Nav1.2; format: cell-based; details: read-out: Nav1.2 Inhibition rate (%)
Description: as §1

Nav1.4 = Nav1.4 (Homo sapiens, UniProt P35499); assay: Sodium channel selectivity test, patch-clamp, Nav1.4; format: cell-based; details: read-out: Nav1.4 Inhibition rate (%)
Chain of Nav1.4 (P35499 whole entry): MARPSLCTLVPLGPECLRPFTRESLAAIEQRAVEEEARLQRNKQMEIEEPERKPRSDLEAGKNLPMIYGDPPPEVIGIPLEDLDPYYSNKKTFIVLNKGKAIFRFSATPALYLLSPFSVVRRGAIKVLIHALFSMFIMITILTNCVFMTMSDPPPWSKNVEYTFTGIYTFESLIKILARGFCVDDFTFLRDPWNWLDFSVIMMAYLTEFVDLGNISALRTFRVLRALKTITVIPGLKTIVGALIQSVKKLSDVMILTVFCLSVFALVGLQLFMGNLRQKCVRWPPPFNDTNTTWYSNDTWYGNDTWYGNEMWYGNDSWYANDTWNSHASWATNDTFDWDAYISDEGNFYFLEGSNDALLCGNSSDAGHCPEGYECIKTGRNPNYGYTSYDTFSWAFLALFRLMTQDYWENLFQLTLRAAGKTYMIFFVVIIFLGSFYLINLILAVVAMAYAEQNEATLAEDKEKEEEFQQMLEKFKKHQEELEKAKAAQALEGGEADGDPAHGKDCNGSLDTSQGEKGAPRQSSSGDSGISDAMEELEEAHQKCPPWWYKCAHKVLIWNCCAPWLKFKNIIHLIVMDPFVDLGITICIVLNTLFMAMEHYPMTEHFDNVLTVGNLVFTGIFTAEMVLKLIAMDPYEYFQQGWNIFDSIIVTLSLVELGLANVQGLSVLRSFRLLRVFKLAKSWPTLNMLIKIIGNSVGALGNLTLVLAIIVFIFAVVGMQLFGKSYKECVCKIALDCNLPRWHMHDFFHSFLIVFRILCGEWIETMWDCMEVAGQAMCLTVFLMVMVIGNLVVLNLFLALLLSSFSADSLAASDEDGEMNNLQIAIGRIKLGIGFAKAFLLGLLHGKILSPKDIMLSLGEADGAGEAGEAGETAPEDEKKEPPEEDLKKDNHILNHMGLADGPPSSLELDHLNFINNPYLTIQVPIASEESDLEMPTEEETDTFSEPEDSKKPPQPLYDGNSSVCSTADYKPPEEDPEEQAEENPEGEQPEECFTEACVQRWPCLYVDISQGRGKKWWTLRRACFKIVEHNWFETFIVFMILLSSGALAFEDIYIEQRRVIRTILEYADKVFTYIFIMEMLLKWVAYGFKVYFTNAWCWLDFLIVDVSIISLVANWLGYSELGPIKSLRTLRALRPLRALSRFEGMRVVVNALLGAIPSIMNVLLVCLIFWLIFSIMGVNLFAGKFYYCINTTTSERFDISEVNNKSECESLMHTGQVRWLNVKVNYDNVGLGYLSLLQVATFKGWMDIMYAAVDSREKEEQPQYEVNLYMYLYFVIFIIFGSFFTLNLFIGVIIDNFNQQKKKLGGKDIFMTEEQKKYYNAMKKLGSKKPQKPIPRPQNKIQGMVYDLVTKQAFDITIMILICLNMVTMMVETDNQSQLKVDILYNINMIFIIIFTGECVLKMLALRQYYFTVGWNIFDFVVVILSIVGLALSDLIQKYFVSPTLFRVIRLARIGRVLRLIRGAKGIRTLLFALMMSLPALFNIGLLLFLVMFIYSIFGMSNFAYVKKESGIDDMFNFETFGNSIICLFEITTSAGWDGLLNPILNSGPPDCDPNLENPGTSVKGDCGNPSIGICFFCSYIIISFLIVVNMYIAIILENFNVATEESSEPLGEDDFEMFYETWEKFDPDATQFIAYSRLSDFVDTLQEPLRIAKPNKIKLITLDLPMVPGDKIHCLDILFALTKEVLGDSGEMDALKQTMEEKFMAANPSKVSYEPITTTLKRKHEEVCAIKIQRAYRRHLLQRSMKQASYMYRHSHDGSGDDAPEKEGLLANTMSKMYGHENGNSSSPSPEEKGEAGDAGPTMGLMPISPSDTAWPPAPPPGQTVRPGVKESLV
Description: as §1

Nav1.3 = Nav1.3 (Homo sapiens, UniProt Q9NY46); assay: Sodium channel selectivity test, patch-clamp, Nav1.3; format: cell-based; details: read-out: Nav1.3 Inhibition rate (%)
Description: as §1

[2] = 30 mg/kg intragastric, second group set (solvent control 20.11 ± 3.55)
[3] = 100 mg/kg intragastric, second group set (solvent control 20.11 ± 3.55)

SMILES	Number of writhes ([1]; 30 mg/kg intragastric, first group set (solvent control 16.11 ± 5.84))	inhibition at 30 µM (Nav1.7)	inhibition at 30 µM (Nav1.2)	inhibition at 30 µM (Nav1.4)	inhibition at 30 µM (Nav1.3)	Number of writhes [1, 2]	Number of writhes [1, 3]
COCCOc1c([C@H]2[C@H](C(=O)Nc3ccc(F)c(C(=N)NO)c3)O[C@@](C)(C(F)(F)F)[C@H]2C)ccc(F)c1F [Example 10]	12.10 ± 6.10	20.8%	32.8%	75.4%	28.6%		
C[C@H]1[C@@H](c2ccc(F)c(F)c2OC2COC2)[C@H](C(=O)Nc2ccc(F)c(C(=N)NO)c2)O[C@@]1(C)C(F)(F)F [Example 11]		14.8%	16%	8.45%	21.7%	11.56 ± 5.15	8.38 ± 6.12
COc1c([C@H]2[C@H](C(=O)Nc3ccnc(C(N)=O)c3)O[C@@](C)(C(F)(F)F)[C@H]2C)ccc(F)c1F [Reference compound, reference compound]		11.1%	53.6%	83.6%	63.4%	11.86 ± 3.53	10.13 ± 3.64
